Measurements from patent US11247965B2 (VenatoRx Pharmaceuticals, Inc., priority 2017, dated 2022).

Columns and labels:
[1] = In vitro cytotoxicity, MTT cell viability assay in HepG2 cells; type: cell-based; settings: human, Cytotoxicity CC50
How it was run: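 Using MTT conversion as the viability measure, HepG2 cells were incubated with compounds for 7 days (30 μM to 1.0 nM). Absorbance at 492 nm was normalized to vehicle and fitted to give CC50.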

[2] = system: HBV replication in HepAD38 cells; test: Anti-HBV activity in HepAD38 cells, extracellular HBV DNA by QPCR; type: cell-based, HBV (genotype D, serotype ayw); settings: Hepatitis B virus, HePAD38, 168 h, read-out: Anti-HBV EC50, HepAD38 cells, extracellular HBV DNA by QPCR, 7 days of incubation
How it was run: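 Seven-day compound exposure (30 μM down to 10 nM, half-log steps) after tetracycline withdrawal induced HBV replication in HepAD38 cells. Extracellular viral DNA measured by QPCR (copies/mL via standard curve), normalised to DMSO wells; EC50 from 4-parameter non-linear regression.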

Structure (SMILES)	CC50 at 7 days [1] [µM]	EC50 [2] [µM]
Cc1cc(NC(=O)c2ccc(F)c(C(F)(F)C(=O)N3C4CC[C@@H]3C[C@@H](C(=O)O)C4)c2)ccc1F [Example 259, (1R,3s,5S)-8-(2,2-difluoro-2-(2-fluoro-5-((4-fluoro-3-methylphenyl)carbamoyl)phenyl)acetyl)-8-azabicyclo[3.2.1]octane-3-carboxylic acid]	> 30	< 5
Cc1cc(NC(=O)c2ccc(F)c(C(F)(F)C(=O)N3CCC(N)C(C)(C)C3)c2)ccc1F (centres unmarked) [Example 285, 3-(2-(4-amino-3,3-dimethylpiperidin-1-yl)-1,1-difluoro-2-oxoethyl)-4-fluoro-N-(4-fluoro-3-methylphenyl)benzamide]	5 to 30	< 5
Cc1cc(NC(=O)c2cc(C(F)(F)C(=O)N3CCC(O)CC3)c(Cl)cc2C)ccc1F [Example 67, 4-chloro-5-(1,1-difluoro-2-(4-hydroxypiperidin-1-yl)-2-oxoethyl)-N-(4-fluoro-3-methylphenyl)-2-methylbenzamide]	> 30	< 5
O=C(Nc1ccc(F)c(Cl)c1)c1ccc(F)c(C(F)(F)C(=O)N2CCC(O)(CO)CC2)c1 [Example 172, N-(3-chloro-4-fluorophenyl)-3-(1,1-difluoro-2-(4-hydroxy-4-(hydroxymethyl)piperidin-1-yl)-2-oxoethyl)-4-fluorobenzamide]	5 to 30	< 5
Cc1cc(NC(=O)c2ccc(F)c(C(F)(F)C(=O)N3CCn4nncc4C3)c2)ccc1F [Example 297, 3-(2-(6,7-dihydro-[1,2,3]triazolo[1,5-a]pyrazin-5(4H)-yl)-1,1-difluoro-2-oxoethyl)-4-fluoro-N-(4-fluoro-3-methylphenyl)benzamide]	5 to 30	< 5
CC(=O)N[C@@H]1C[C@H]2CC[C@@H](C1)N2C(=O)C(F)(F)c1cc(C(=O)Nc2ccc(F)c(C)c2)ccc1F [Example 227, 3-(2-((1R,3s,5S)-3-acetamido-8-azabicyclo[3.2.1]octan-8-yl)-1,1-difluoro-2-oxoethyl)-4-fluoro-N-(4-fluoro-3-methylphenyl)benzamide]	5 to 30	< 5
O=C(Nc1ccc(F)c(F)c1)c1ccc(F)c(C(F)(F)C(=O)Nc2ccc(F)cn2)c1 [Example 22, 3-(1,1-difluoro-2-((5-fluoropyridin-2-yl)amino)-2-oxoethyl)-N-(3,4-difluorophenyl)-4-fluorobenzamide]	> 30	5 to 30
C[C@H](NC(=O)C(F)(F)c1c(C(=O)Nc2ccc(F)c(Cl)c2)ccn1C)C(F)(F)F [Example 141]	> 30	5 to 30
O=C(Nc1ccc(F)c(Br)c1)c1ccc(F)c(C(F)(F)C(=O)N2[C@@H]3CC[C@H]2C[C@@H](O)C3)c1 [Example 176, N-(3-bromo-4-fluorophenyl)-3-(1,1-difluoro-2-((1R,3r,5S)-3-hydroxy-8-azabicyclo[3.2.1]octan-8-yl)-2-oxoethyl)-4-fluorobenzamide]	5 to 30	< 5
Cc1cc(NC(=O)c2ccc(F)c(C(F)(F)C(=O)N3C4CC[C@@H]3C[C@H](O)C4)c2)cc(F)c1F [Example 249, 3-(1,1-difluoro-2-((1R,3r,5S)-3-hydroxy-8-azabicyclo[3.2.1]octan-8-yl)-2-oxoethyl)-N-(3,4-difluoro-5-methylphenyl)-4-fluorobenzamide]	5 to 30	< 5
Cc1cc(NC(=O)c2ccc([N+](=O)[O-])c(C(F)(F)C(=O)N3CCC(O)CC3)c2)ccc1F [Example 298, 3-(1,1-difluoro-2-(4-hydroxypiperidin-1-yl)-2-oxoethyl)-N-(4-fluoro-3-methylphenyl)-4-nitrobenzamide]	5 to 30	< 5
Cc1cc(NC(=O)c2ccc(F)c(C(F)(F)C(=O)N3CC[C@H](N)C3)c2)ccc1F [Example 234, (S)-3-(2-(3-aminopyrrolidin-1-yl)-1,1-difluoro-2-oxoethyl)-4-fluoro-N-(4-fluoro-3-methylphenyl)benzamide]	> 30	5 to 30
O=C(Nc1ccc(F)c(Cl)c1)c1ccc(Cl)c(C(F)(F)C(=O)N2CCC(O)CC2)c1 [Example 35, 4-chloro-N-(3-chloro-4-fluorophenyl)-3-(1,1-difluoro-2-(4-hydroxypiperidin-1-yl)-2-oxoethyl)benzamide]	5 to 30	< 5
Cc1cc(NC(=O)c2cc(F)cc(C(F)(F)C(=O)N3CCC(O)CC3)c2)ccc1F [Example 93, 3-(1,1-difluoro-2-(4-hydroxypiperidin-1-yl)-2-oxoethyl)-5-fluoro-N-(4-fluoro-3-methylphenyl)benzamide]	5 to 30	< 5
CC(=O)NC1CCN(C(=O)C(F)(F)c2cc(C(=O)Nc3ccc(F)c(C)c3)ccc2N)CC1(C)C (centres unmarked) [Example 311, 3-(2-(4-acetamido-3,3-dimethylpiperidin-1-yl)-1,1-difluoro-2-oxoethyl)-4-amino-N-(4-fluoro-3-methylphenyl)benzamide]	> 30	< 5
Cc1cc(NC(=O)c2ccc(F)c(C(F)(F)C(=O)N[C@@H]3CCOC3=O)c2)ccc1F [Example 84, (R)-3-(1,1-difluoro-2-oxo-2-((2-oxotetrahydrofuran-3-yl)amino)ethyl)-4-fluoro-N-(4-fluoro-3-methylphenyl)benzamide]	> 30	> 30
O=C(Nc1ccc(F)cn1)c1ccc(Cl)c(C(F)(F)C(=O)N2CCC(O)CC2)c1 [Example 38, 4-chloro-3-(1,1-difluoro-2-(4-hydroxypiperidin-1-yl)-2-oxoethyl)-N-(5-fluoropyridin-2-yl)benzamide]	> 30	> 30
Cc1cc(NC(=O)c2ccc(F)c(C(F)(F)C(=O)Nc3nc4c(s3)CCNC4)c2)ccc1F [Example 309, 3-(1,1-difluoro-2-oxo-2-((4,5,6,7-tetrahydrothiazolo[4,5-c]pyridin-2-yl)amino)ethyl)-4-fluoro-N-(4-fluoro-3-methylphenyl)benzamide]	5 to 30	5 to 30
Cc1cc(NC(=O)c2ccc(F)c(C(F)(F)C(=O)N3CCC(NS(C)(=O)=O)C(F)(F)C3)c2)ccc1F (centres unmarked) [Example 335, 3-(2-(3,3-difluoro-4-(methylsulfonamido)piperidin-1-yl)-1,1-difluoro-2-oxoethyl)-4-fluoro-N-(4-fluoro-3-methylphenyl)benzamide]	> 30	< 5
CNCC(=O)NC1CCN(C(=O)C(F)(F)c2nc(C(=O)Nc3ccc(F)c(C)c3)ccc2F)CC1(C)C (centres unmarked) [Example 302, 6-(2-(3,3-dimethyl-4-(2-(methylamino)acetamido)piperidin-1-yl)-1,1-difluoro-2-oxoethyl)-5-fluoro-N-(4-fluoro-3-methylphenyl)picolinamide]	5 to 30	< 5
O=C(Nc1ccc(F)c(F)c1)c1ccc(F)c(C(F)(F)C(=O)NCc2ccncc2)c1 [Example 51, 3-(1,1-difluoro-2-oxo-2-((pyridin-4-ylmethyl)amino)ethyl)-N-(3,4-difluorophenyl)-4-fluorobenzamide]	> 30	< 5
Cc1cc(NC(=O)c2ccc(F)c(C(F)(F)C(=O)N3CCC4(CC3)NC(=O)NC4=O)c2)ccc1F [Example 269, 3-(2-(2,4-dioxo-1,3,8-triazaspiro[4.5]decan-8-yl)-1,1-difluoro-2-oxoethyl)-4-fluoro-N-(4-fluoro-3-methylphenyl)benzamide]	> 30	< 5
